What was measured:
Format in all cases: cell-based
K-Ras G12D = molecular target: T1, K-Ras G12D (Homo sapiens, UniProt P01116, G12D); test: G-LISA Ras activation, 293H cells transfected with G12D mutant; settings: compound 1 hour
T1 construct: expressed in transfected cells; host or cells: 293H cells
Method in brief: (§1)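 G-LISA Ras-GTP readout; 293H transfectants treated 1 h with 3.125-25 μM compound, EGF pulse (100 ng/ml, 2 min) for wild-type only.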

[1] = tested on: Ishikawa (K-Ras wild type cell line); test: Viability assay (CellTiterBlue, 72 hr) Ishikawa; settings: Homo sapiens, GI50, CellTiterBlue, Ishikawa K-Ras wild-type
Method in brief: (§2)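 Fluorescence at Ex550/Em590, read 3 hr after CellTiterBlue addition, served as the viability signal following 72 hr compound treatment. Wells held 1000 cells, pre-incubated 18 hr at 37 °C, with 0.5% DMSO final. GI50 derived with DMSO as 100% and 100 uM tamoxifen as 0% viability.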

[2] = tested on: U87-MG (K-Ras wild type cell line); test: Viability assay (CellTiterBlue, 72 hr) U87-MG; settings: Homo sapiens, U-87 MG, GI50, CellTiterBlue, U87-MG K-Ras wild-type
Method in brief: as §2

[3] = tested on: HCC827 (K-Ras wild type cell line); test: Viability assay (CellTiterBlue, 72 hr) HCC827; settings: Homo sapiens, GI50, CellTiterBlue, HCC827 K-Ras wild-type
Method in brief: as §2

[4] = tested on: A375 (K-Ras wild type cell line); test: Viability assay (CellTiterBlue, 72 hr) A375; settings: Homo sapiens, A-375, GI50, CellTiterBlue
Method in brief: as §2

Panc1-G12D = test: Viability assay (CellTiterBlue, 72 hr) Panc1; settings: Homo sapiens, PANC-1, GI50, CellTiterBlue, Panc1 K-Ras G12D, read-out: 72 hr Cell Viability Panc1 (G12D)
Method in brief: as §2

Panc10.05-G12D = test: Viability assay (CellTiterBlue, 72 hr) Panc10.05; settings: Homo sapiens, Panc1005, GI50, CellTiterBlue, Panc10.05 K-Ras G12D, read-out: 72 hr Cell Viability Panc10.05 (G12D)
Method in brief: as §2

HCT116-G31D = test: Viability assay (CellTiterBlue, 72 hr) HCT116; settings: Homo sapiens, HCT-116, GI50, CellTiterBlue, HCT116 K-Ras G13D, read-out: 72 hr Cell Viability HCT116 (G13D)
Method in brief: as §2

[5] = tested on: phospho-ERK in HCC827 (Wild-type); test: In-Cell Western phospho-ERK, HCC827; settings: Homo sapiens, 1 h; HCC827, one hour treatment; read-out: In-Cell Western HCC827 (Wild-type) Erk (P)
Method in brief: (§3)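 Following an 18 hr settle at 37° C, seeded cells receive test compound for 1 hr before fixation and staining with phospho-Akt and phospho-ERK primary antibodies (overnight, 4° C) plus a goat anti-rabbit secondary. Plates are imaged and fluorescence quantitated to give EC50.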

[6] = tested on: phospho-Akt in HCC827 (Wild-type); test: In-Cell Western phospho-Akt, HCC827; settings: Homo sapiens, 1 h; HCC827, one hour treatment; read-out: In-Cell Western HCC827 (Wild-type) Akt (P)
Description: In-cell phosphorylation assays for Erk and Akt were performed on several of the compounds and exemplary results are shown in Table 3 below using HCC827 and A375 cell lines for wild type K-Ras and Panc1 and Panc10.05 cell lines for G12D K-Ras mutants. Results are expressed in μM and corresponding structures are shown in FIGS. 2A-2G and Examples 1-152, above.
Cells are seeded in complete medium into black sided, clear-bottom 384-well microplates at 3000 cells/[…]/well. Plates are returned to 37° C. CO2 incubator for 18 hr. Drug is made as 200× in DMSO and diluted into medium to 10×. To each well is added 4 ul 10× test article or controls, and plates are returned to the incubator. Final assay DMSO concentration is 0.5%. After one hour, cells are fixed in formaldehyde, rinsed & permeabilized with triton X-100, and blocked with BSA/Goat serum blocking solution. Primary phospho-Akt and phospho-ERK antibodies are added and plates are incubated overnight at 4° C. Plates are rinsed with Tween-20 wash buffer and secondary antibody (Goat anti-rabbit, Thermofisher) is added. After 2 hours, plates are rinsed in Tween-20 wash buffer, and then PBS. Plates are imaged on the Celigo (Nexcelom) and cellular fluorescence is quantitated. Full inhibition of phospho-Akt is achieved with 1 uM BEZ235 (Sellekchem), while full inhibition of phospho-ERK is achieved with 1 uM MEK Inhibitor II Calbiochem). EC50 values are calculated using Graphpad Prism.

[7] = tested on: phospho-ERK in A375 (Wild-type); test: In-Cell Western phospho-ERK, A375; settings: Homo sapiens, A-375, 1 h; A375, one hour treatment; read-out: In-Cell Western A375 (Wild-type) Erk (P)
Method in brief: as §3

[8] = tested on: phospho-Akt in A375 (Wild-type); test: In-Cell Western phospho-Akt, A375; settings: Homo sapiens, A-375, 1 h; A375, one hour treatment; read-out: In-Cell Western A375 (Wild-type) Akt (P)
Method in brief: as §3

[9] = tested on: phospho-ERK in Panc1 (G12D); test: In-Cell Western phospho-ERK, Panc1; settings: Homo sapiens, PANC-1, 1 h; Panc1, one hour treatment; read-out: In-Cell Western Panc1 (G12D) Erk (P)
Method in brief: as §3

[10] = tested on: phospho-Akt in Panc1 (G12D); test: In-Cell Western phospho-Akt, Panc1; settings: Homo sapiens, PANC-1, 1 h; Panc1, one hour treatment; read-out: In-Cell Western Panc1 (G12D) Akt (P)
Method in brief: as §3

[11] = tested on: phospho-ERK in Panc10.05 (G12D); test: In-Cell Western phospho-ERK, Panc10.05; settings: Homo sapiens, Panc1005, 1 h; Panc10.05, one hour treatment; read-out: In-Cell Western Panc10.05 (G12D) Erk (P)
Method in brief: as §3

[12] = tested on: phospho-Akt in Panc10.05 (G12D); test: In-Cell Western phospho-Akt, Panc10.05; settings: Homo sapiens, Panc1005, 1 h; Panc10.05, one hour treatment; read-out: In-Cell Western Panc10.05 (G12D) Akt (P)
Method in brief: as §3

wild type K-Ras = molecular target: T2, wild type K-Ras (Homo sapiens, UniProt P01116); test: G-LISA Ras activation, 293H cells transfected with Ras wild-type, EGF stimulated; settings: compound 1 hour, then 100 ng/ml EGF 2 minutes
T2 construct: expressed in transfected cells; host or cells: 293H cells
T2 sequence (P01116 whole entry): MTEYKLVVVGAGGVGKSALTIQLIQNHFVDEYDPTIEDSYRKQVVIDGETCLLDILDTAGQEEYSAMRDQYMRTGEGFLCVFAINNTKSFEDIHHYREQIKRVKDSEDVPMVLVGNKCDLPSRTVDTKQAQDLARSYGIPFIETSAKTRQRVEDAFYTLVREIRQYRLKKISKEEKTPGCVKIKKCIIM
Method in brief: as §1

T1 sequence (P01116 whole entry G12D): as the sequence (P01116 whole entry) above, with G12D counted along it

Compound	IC50 (K-Ras G12D) [µM]	IC50 [1] [µM]	IC50 [2] [µM]	IC50 [3] [µM]	IC50 [4] [µM]	IC50 (Panc1-G12D) [µM]	IC50 (Panc10.05-G12D) [µM]	IC50 (HCT116-G31D) [µM]	EC50 [5] [µM]	EC50 [6] [µM]	EC50 [7] [µM]	EC50 [8] [µM]	EC50 [9] [µM]	EC50 [10] [µM]	EC50 [11] [µM]	EC50 [12] [µM]	IC50 (wild type K-Ras) [µM]
Cc1nc(C)c(C(=O)Nc2nc(-c3ccc4c(c3)CCC(=O)N4CCn3cncn3)cs2)o1 [Compound 108, N-(4-(1-(2-(1H-1,2,4-triazol-1-yl)ethyl)-2-oxo-1,2,3,4-tetrahydroquinolin-6-yl)thiazol-2-yl)-2,4-dimethyloxazole-5-carboxamide]	> 25	> 25	> 25	> 25	> 25	> 25	> 25	> 25	> 25	> 25	> 25	> 25	> 25	> 25	21	> 25	–
Cc1nc(C2CC2)oc1C(=O)Nc1nc(-c2ccc3c(c2)CCC(=O)N3Cc2cccnc2)cs1 [Compound 72, 2-cyclopropyl-4-methyl-N-(4-(2-oxo-1-(pyridin-3-ylmethyl)-1,2,3,4-tetrahydroquinolin-6-yl)thiazol-2-yl)oxazole-5-carboxamide]	8	2	–	> 25	–	13	2	> 25	14	19	–	–	3	2	5	19	8
Cc1nc(C)c(C(=O)Nc2nc(-c3ccc4c(c3)CCC(=O)N4Cc3nnn[nH]3)cs2)o1 [Compound 109, N-(4-(1-((1H-tetrazol-5-yl)methyl)-2-oxo-1,2,3,4-tetrahydroquinolin-6-yl)thiazol-2-yl)-2,4-dimethyloxazole-5-carboxamide]	–	> 25	> 25	> 25	> 25	> 25	> 25	> 25	> 25	> 25	> 25	> 25	> 25	> 25	> 25	> 25	–
Cc1nc(C)c(C(=O)Nc2nc(-c3ccc4c(c3)CCC(=O)N4Cc3cccnc3)cs2)o1 [Compound 70, 2,4-dimethyl-N-(4-(2-oxo-1-(pyridin-3-ylmethyl)-1,2,3,4-tetrahydroquinolin-6-yl)thiazol-2-yl)oxazole-5-carboxamide]	8.3	24	–	> 25	–	20	7	> 25	22	19	–	–	10	22	25	> 25	> 25
Cc1nc(C)c(C(=O)Nc2nc(-c3ccc4c(c3)CCC(=O)N4CC3CC3)cs2)o1 [Compound 68, N-(4-(1-(cyclopropylmethyl)-2-oxo-1,2,3,4-tetrahydroquinolin-6-yl)thiazol-2-yl)-2,4-dimethyloxazole-5-carboxamide]	10.3	3	–	5	–	8	3	5	6	13	–	–	5	4	7	23	16.7
CCc1cc(C(=O)Nc2nc(-c3ccc4c(c3)CCC(=O)N4)cs2)n(C)n1 [Compound 24, 3-ethyl-1-methyl-N-(4-(2-oxo-1,2,3,4-tetrahydroquinolin-6-yl)thiazol-2-yl)-1H-pyrazole-5-carboxamide]	9.9	> 25	> 25	> 25	> 25	0.672	2.76	> 25	> 25	> 25	> 25	–	> 25	> 25	> 25	13	7.6

Reference: patent publication US10344026B2, “Compositions and methods of targeting mutant K-ras” (NANTBIO, INC., priority 2017, dated 2019)
